# Reference: PubChem BioAssay (NCI)
#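 Step 1: Grow cells in 96-well plates. Step 2: Expose to compound for 48 hours at 5 concentrations. Step 3: Interpolate endpoints linearly; if unreached, use highest concentration. TGI: concentration producing complete growth inhibition.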
# Legend:
# Experiment in all cases: NCI tumour cell line growth inhibition, 48 h
# [1] = system: RPMI-8226 leukemia
# [2] = system: NCI-H460 lung
# [3] = system: SK-MEL-28 melanoma
# [4] = system: MALME-3M melanoma
# [5] = system: SN12C renal
# [6] = system: SW-620 colon
# [7] = system: CCRF-CEM leukemia
# [8] = system: SNB-19 CNS
# [9] = system: SF-268 CNS
# [10] = system: UACC-62 melanoma
# [11] = system: EKVX NSCLC
# [12] = system: HCT-15 colon
# [13] = system: TK-10 renal
# [14] = system: OVCAR-8 ovarian
# [15] = system: MDA-MB-435
# [16] = system: PC-3 prostate
# [17] = system: MDA-MB-231 breast
# [18] = system: NCI/ADR-RES ovarian
# [19] = system: CAKI-1 renal
Compound,TGI [1] [µM],TGI [2] [µM],TGI [3] [µM],TGI [4] [µM],TGI [5] [µM],TGI [6] [µM],TGI [7] [µM],TGI [8] [µM],TGI [9] [µM],TGI [10] [µM],TGI [11] [µM],TGI [12] [µM],TGI [13] [µM],TGI [14] [µM],TGI [15] [µM],TGI [16] [µM],TGI [17] [µM],TGI [18] [µM],TGI [19] [µM]
CCCCCC(CN1CCOCC1)C(=O)/C=C/c1ccccc1 (stereo not drawn),9.03,11.1,19.1,6.42,10.5,3.33,6.72,13.2,5.02,3.37,22.5,4.92,,,,,,,
CSC1=N/C(=C\c2ccc(C)cc2)C(=O)N1CN1CCOCC1,> 100,,,> 100,> 100,> 100,> 100,> 100,> 100,> 100,> 100,> 100,> 100,> 100,> 100,> 100,> 100,> 100,
CCOC(=O)CN1CCNCCN(CC(=O)OCC)CCNCC1,> 100,> 100,> 100,,> 100,,> 100,> 100,,> 100,> 100,> 100,> 100,> 100,> 100,> 100,> 100,> 100,> 100
O=C(NN=C1CCN(Cc2ccccc2)CC1)C(O)(c1ccccc1)c1ccccc1,> 100,,> 100,> 100,> 100,> 100,> 100,> 100,> 100,> 100,> 100,> 100,> 100,> 100,> 100,,> 100,> 100,
COc1ccc2[nH]c(CCNC(=O)c3cc([N+](=O)[O-])cc([N+](=O)[O-])c3)cc2c1,> 100,> 100,> 100,> 100,> 100,> 100,> 100,> 100,> 100,> 100,,> 100,> 100,> 100,> 100,> 100,> 100,> 100,> 100
CCN(CC)CCn1c(C(C)(C)C)nc2ccccc21,> 100,> 100,> 100,> 100,> 100,> 100,> 100,> 100,> 100,> 100,> 100,> 100,> 100,> 100,,> 100,,> 100,> 100
CC1C(c2ccc(F)cc2)c2cc3c(cc2OC1N1CCCC1)OCO3 (stereo not drawn),,,> 100,,> 100,> 100,> 100,> 100,> 100,> 100,> 100,> 100,> 100,> 100,> 100,> 100,,> 100,58.4
CC1=C2C(O)C(C(C)C(=O)NCC(C)C)CCC2(C)C=CC1=O (stereo not drawn),> 100,> 100,> 100,,> 100,> 100,> 100,> 100,> 100,> 100,> 100,> 100,,> 100,,,,> 100,> 100
CC(=O)ON(OC(C)=O)c1ccc(C)cc1,> 100,> 100,> 100,> 100,,> 100,,> 100,> 100,> 100,> 100,> 100,> 100,> 100,> 100,> 100,> 100,> 100,> 100
C=C1C(=O)O[C@@H]2[C@H]3O[C@]3(C)CCC=C(C)CC[C@@H]12,77.2,56.4,44.3,25.3,50.2,34.5,59.9,163,62.6,37.7,39.2,35.3,,43.9,,,,45.3,22.5
CC(=O)OCC1OC(On2ccccc2=S)C(OC(C)=O)C(OC(C)=O)C1OC(C)=O (stereo not drawn),,> 100,> 100,> 100,> 100,> 100,34.5,> 100,> 100,> 100,> 100,> 100,> 100,> 100,> 100,> 100,> 100,> 100,> 100
CCOP(=O)(OCC)C(NC(=O)OCC(Cl)(Cl)Cl)n1nnc(C(=O)OC)c1C(=O)OC (stereo not drawn),> 100,> 100,> 100,> 100,,> 100,> 100,> 100,> 100,> 100,> 100,> 100,> 100,> 100,> 100,> 100,> 100,> 100,> 100
CC(=O)/C(C=Nc1c(C)n(C)n(-c2ccccc2)c1=O)=C(/C)O,> 100,,,> 100,> 100,> 100,> 100,> 100,,> 100,> 100,> 100,> 100,> 100,> 100,> 100,> 100,> 100,> 100
COc1c(CC=C(C)C)c(O)c(C(CC(C)C)c2c(O)c(C(C)=O)c(O)c3c2OC(C(C)(C)O)C3)c(O)c1C(C)=O (stereo not drawn),,> 12.5,> 12.5,> 12.5,> 12.5,> 12.5,> 12.5,> 12.5,> 12.5,> 12.5,11.6,> 12.5,,> 12.5,> 12.5,,,12.2,> 12.5
